Data on 79 compounds can be found in the METLIN SMRT retention time set (Domingo-Almenara et al. 2019).

This data set in a line: gradient 5% acetonitrile 3 min, to 50% in 2 min, to 85% in 15 min, held 3 min, 100 µL/min. Conditions: column: Zorbax Extend-C18 2.1 x 50 mm; eluents: water / acetonitrile, 0.1% formic acid. In outline:
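A Zorbax Extend-C18 column (2.1 × 50 mm, 1.8 μm) run at 100 μL/min with water and acetonitrile, both containing 0.1% formic acid, separated mixtures of ~100 pure standards. The HPLC was coupled to a quadrupole time-of-flight mass spectrometer operated in positive and negative ionization mode, with dead and dwell volumes of 40 μL and 900 μL. Each retention time was taken from a computationally picked adduct peak that was then manually inspected.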
`CCc1c(C(=O)NNC(=O)[C@@H](O)c2cc(F)cc(F)c2)ccc(O)c1C` yielded an RP-LC retention time of 807 s.

In turn, `COc1cccc(NC(=O)Cn2c(N)nc(C)cc2=O)c1` showed an RP-LC retention time of 581 s.

With `COc1ccc(N2CCN(C(=O)C3(c4ccc(NC(=O)C5CC5)cc4)CCC3)CC2)cc1`, the RP-LC retention time is 816 s.

`O=C(c1c(F)cccc1F)N1CCN=C1N1CCN(c2cccc(Cl)c2)CC1`: the RP-LC retention time worked out at 765 s.

As for `Cc1cc2nc(C)c(=O)n(CC(=O)NCCCN(C)C3CCCCC3)c2cc1C`, the RP-LC retention time was determined as 624 s.

The compound `O=C(CCCSc1ccc(NC(=O)c2cccs2)nn1)NCc1ccco1` gave an RP-LC retention time of 714 s.

`CCN(CC)c1ccc(NC(=O)C2Cc3cc(S(=O)(=O)N4CCCC4)ccc3N2C(C)=O)c(C)c1` (centres undefined) had an RP-LC retention time of 676 s.

For the compound `COc1ccc(CNC(=O)Cc2nnc(-c3ccc4ncccc4c3)o2)c(OC)c1`, the RP-LC retention time amounted to 841 s.

`CC(C)Cc1csc(-c2csc(S(=O)(=O)NCc3cc(F)cc(F)c3)c2)n1` displayed an RP-LC retention time of 1200 s.

In turn, `CCNc1cc(N2CCC(CCC(=O)NCc3cc(F)cc(F)c3)CC2)ncn1` registered an RP-LC retention time of 669 s.

For the compound `CCN1c2ccccc2C(=O)NC12CCN(C(=O)Cc1ccccc1C)CC2`, the RP-LC retention time was 849 s.

As for `Cn1cc(CN2CCC(C(=O)N3CCCC3)CC2)c2cc(Cl)ccc21`, the RP-LC retention time came out at 631 s.

Compound `CCC(c1cccs1)N1C(=O)[C@H]2CN(S(=O)(=O)c3cccnc3)C[C@H]2C1=O` (some centres undefined) yielded an RP-LC retention time of 824 s.

In the case of `COc1ccccc1-n1nnc(C(=O)NCc2nc3ccccc3n2C)c1-c1ccccn1`, the RP-LC retention time amounted to 574 s.

As for `O=C(CN1c2ccc(F)cc2-c2ccccc2S1(=O)=O)N1CCCCC1`, the RP-LC retention time turned out to be 915 s.

Compound `Cc1nc(-c2ccccc2)sc1CC(=O)NCCSc1nncn1C` showed an RP-LC retention time of 626 s.

As to `CCS(=O)(=O)Nc1ccc(-c2noc(CNC(=O)c3ccccc3)n2)cc1`, the RP-LC retention time was determined as 744 s.

As for `COC(=O)c1c(C)c(C(=O)C(C)N(C(=O)c2ccccc2Cl)C(C)C)c(C)n1C` (centres undefined), the RP-LC retention time turned out to be 975 s.

`O=C(c1ccc2c(c1)OCO2)N(CCc1cscn1)Cc1cccnc1` yielded an RP-LC retention time of 602 s.

As to `O=C(Cn1cnc(-c2ccc(F)cc2)cc1=O)NCc1cccs1`, the RP-LC retention time was 703 s.

With `CC1CCN(C(=O)C2CC(=O)N(c3ccccc3)C2)CC1` (centres undefined), the RP-LC retention time was 764 s.

On to `O=C(O)c1nnn(-c2ccc3c(c2)OCCO3)c1-c1ccccn1`, for which the RP-LC retention time amounted to 640 s.

Regarding `Cc1cc(NCC(=O)NC2CCCCC2)n2nc(-c3cccnc3)nc2n1`, the RP-LC retention time was 646 s.

Take `O=C(CSc1nc(-c2ccccc2)ns1)OCc1ccccc1`: the RP-LC retention time is 1160 s.

As to `O=C(NCc1cccc(Br)c1)C1CCCN(c2nccnc2Sc2ccccc2)C1` (centres undefined), the RP-LC retention time worked out at 1130 s.

Take `Cc1cccc(C(=O)N2CCN(c3nnc4cccc(C)n34)CC2)c1`: the RP-LC retention time is 680 s.

`Cc1ccccc1NC(=O)CN1CCc2[nH]c3c(C)cc(F)cc3c(=O)c2C1`: the RP-LC retention time came out at 608 s.

For the compound `CCCCN1C(=O)C(C)(C(=O)NCc2cccc(C)c2)Oc2cccnc21` (centres undefined), the RP-LC retention time is 1030 s.

Compound `O=C(Cn1cccc1-c1nnc(C2CCC2)o1)N1CCN(Cc2ccc3c(c2)OCO3)CC1` came in with an RP-LC retention time of 688 s.

As for `CCn1cc(CCNS(=O)(=O)c2ccccc2F)c2cccnc21`, the RP-LC retention time was determined as 745 s.

Compound `O=C(C1CCCN(c2ncnc3c2nc2n3CCCCC2)C1)N1CCc2ccccc21` (centres undefined) had an RP-LC retention time of 860 s.

In turn, `COc1ccc(NC(=O)C2CCCN(c3nc4c(s3)c(C)nn4-c3ccccc3)C2)c(OC)c1` (centres undefined) displayed an RP-LC retention time of 1160 s.

Regarding `O=C(Cc1ccccc1)NCCSc1c[nH]c2ccccc12`, the RP-LC retention time stood at 790 s.

For `CCCCN1C(=O)C(NC(=O)c2ccccc2OC)(C(F)(F)F)C(C(=O)OC)=C1C` (centres undefined), the RP-LC retention time stood at 1070 s.

On to `COc1ccc(N2CC(c3nc(-c4ccc(C(F)(F)F)cc4)no3)CC2=O)cc1` (centres undefined), for which the RP-LC retention time amounted to 1040 s.

Consider `CCn1nnc2ccc(-c3noc(CNC(=O)c4ccccc4)n3)cc21`, for which the RP-LC retention time worked out at 773 s.

In turn, `Cc1ccc(Cl)cc1NC(=O)NC(C)C(=O)N1CCc2ccccc21` (centres undefined) came in with an RP-LC retention time of 945 s.

`COCCN1CCC2(CC1)CN(Cc1ccc(C(C)C)cc1)Cc1ccccc1O2`: the RP-LC retention time came out at 667 s.

For `Cc1nc(-c2csc(S(=O)(=O)N3CCCC(C(=O)Nc4cccc(C)c4C)C3)c2)no1` (centres undefined), the RP-LC retention time turned out to be 951 s.

`O=c1c2nc(-c3ccccc3)cn2ccn1-c1ccc(F)cc1` yielded an RP-LC retention time of 775 s.

On to `Cc1ccc2nc(C)cc(C(=O)NC3CCCC3)c2c1`, for which the RP-LC retention time came out at 610 s.

Consider `N#Cc1cccc(C(=O)NC2CCN(c3cc(-c4ccccc4)[nH]n3)C2)c1` (centres undefined), for which the RP-LC retention time is 691 s.

In turn, `CC(C)c1ccc(-n2nc(N3CCN(C(=O)c4ccco4)CC3)ccc2=O)cc1` displayed an RP-LC retention time of 842 s.

In the case of `COc1ccc(S(=O)(=O)Nc2ccc(-c3cn4ccc(C)nc4n3)cc2)c(C)c1C`, the RP-LC retention time stood at 715 s.

Compound `Cc1ccn2c(Nc3ccc4c(c3)OCCO4)c(-c3cccc(Br)c3)nc2c1` came in with an RP-LC retention time of 739 s.

Take `CCOc1ccc(-n2nnnc2CN2CCN(C(=O)c3cccs3)CC2)cc1`: the RP-LC retention time worked out at 746 s.

Consider `O=C(c1ccco1)N1CCCC(OCc2nc(C3CC3)no2)C1` (centres undefined), for which the RP-LC retention time is 732 s.

`Cc1ccccc1NC(=O)N1CCC(n2cnc3c(Cl)cccc3c2=O)CC1` yielded an RP-LC retention time of 791 s.

The compound `O=C(C1CCN(Cc2cc3ccccc3n2Cc2ccccc2)CC1)N1CCOCC1` returned an RP-LC retention time of 683 s.

`COc1ccc(-c2cnn(CC(=O)Nc3cc(F)cc(F)c3)c(=O)n2)cc1` gave an RP-LC retention time of 872 s.

In turn, `O=C(NC1CCCCCCC1)C1CCCN(S(=O)(=O)c2c[nH]c(C(=O)N3CCCC3)c2)C1` (centres undefined) yielded an RP-LC retention time of 854 s.

Regarding `COc1cc(CNCCSc2nnnn2C)cc(Br)c1OCc1ccccc1`, the RP-LC retention time stood at 744 s.

Consider `FC(F)(F)c1ccc(Nc2nc3ccc(Oc4ccnc(-c5ncc(C(F)(F)F)[nH]5)c4)cc3[nH]2)cc1`, for which the RP-LC retention time is 844 s.

`Cc1ccn2c(Nc3ccccc3C)c(-c3cccc(Br)c3)nc2c1` returned an RP-LC retention time of 819 s.

`CC1=C(C(=O)N2CCOCC2)C(c2ccccc2Br)C2=C(CC(C)(C)CC2=O)N1` (centres undefined) showed an RP-LC retention time of 683 s.

`O=C(NCCc1ccc(Cl)cc1)c1csc(C(=O)N2CCCC2)n1` gave an RP-LC retention time of 894 s.

As for `CCN(CC)c1ccc(NC(=O)c2cccs2)cc1C(=O)O`, the RP-LC retention time came out at 626 s.

`CCOC(=O)c1cnc2nc(C)ccc2c1Nc1ccc(C)c(F)c1` yielded an RP-LC retention time of 736 s.

Consider `Cc1cc(C)n(CCC(=O)NCCn2c(C)cnc2C2CCC2)n1`, for which the RP-LC retention time was 577 s.

`CC(C)(C)NC(=O)N1CCCC(c2nc(CCOCC3CCOCC3)no2)C1` (centres undefined) came in with an RP-LC retention time of 728 s.

As for `CC(=O)N1CCN(S(=O)(=O)c2cc3c4c(c2)CCC(=O)N4CCC3)CC1`, the RP-LC retention time amounted to 647 s.

Take `CCC(=O)Nc1ccc(CCc2nc3ccc(C(=O)NC(C)CCc4ccccc4)cc3[nH]2)cc1` (centres undefined): the RP-LC retention time was found to be 714 s.

For the compound `CCOC(=O)CNC(=O)N1CCCN(C2=NS(=O)(=O)C(c3ccccc3)=C2C)CC1`, the RP-LC retention time stood at 718 s.

Consider `Cc1ccc(CNc2c(-c3ccc(C(C)C)cc3)nc3ncccn23)cc1`, for which the RP-LC retention time stood at 907 s.

For `C=Cc1ccc(CN2N=C(C(=O)N3CCOCC3)S(=O)(=O)c3ccc(C)cc32)cc1`, the RP-LC retention time came to 919 s.

As to `CC(C)OCCCNC(=O)C1CCCCC(=O)N1` (centres undefined), the RP-LC retention time was 617 s.

Compound `CCCCN1C(=O)C(C)(C(=O)NCc2ccccc2C)Oc2cccnc21` (centres undefined) registered an RP-LC retention time of 1050 s.

Consider `COc1ccc(N2CCN(c3nccc(-n4nc(C)cc4C)n3)CC2)cc1`, for which the RP-LC retention time was determined as 956 s.

Compound `Cc1ccc(-c2noc(CCN3CCN(c4ccccn4)CC3)n2)cc1` displayed an RP-LC retention time of 625 s.

As for `COc1ccc(Oc2cc3c(cc2NC(=O)Nc2cccc(OC)c2)n(C)c(=O)n3C)cc1`, the RP-LC retention time worked out at 920 s.

In turn, `O=C(Cn1nc2c(N3CCCCCC3)nccn2c1=O)Nc1ccccc1C(F)(F)F` showed an RP-LC retention time of 727 s.

As for `CCn1cc(C)c(C(=O)O)c1CC(=O)NCCC(C)C`, the RP-LC retention time was determined as 749 s.

As for `CC(C)c1ccc(NC(=O)Cn2ncc3c(c2=O)N(CC2CC2)C(=O)CS3)cc1`, the RP-LC retention time is 934 s.

The compound `Cc1cc(C)c(S(=O)(=O)N2CCC(c3cc(N)on3)CC2)cc1C` registered an RP-LC retention time of 879 s.

With `Cc1ccc(N2CCN(C(=O)c3c(C)oc4nc(C)nc(N5CCOCC5)c34)CC2)c(C)c1`, the RP-LC retention time stood at 1020 s.

The compound `COc1cccc(CNC(=O)C2CCCN(c3nnc(C)c4c(C)n(-c5ccccc5)nc34)C2)c1` (centres undefined) had an RP-LC retention time of 715 s.

The compound `CC(C)[C@H](CO)Nc1nc(Sc2cccc(N)c2)c2ncn(C(C)C)c2n1` had an RP-LC retention time of 706 s.

`O=C1CCCN1CCCN1C(=O)[C@H]2CN(Cc3ccc(F)c(Cl)c3)C[C@H]2C1=O` showed an RP-LC retention time of 599 s.

In turn, `CCN1CCN(CCNC(=O)C2CCCN(c3ncc(-c4ccc(F)cc4)cn3)C2)CC1` (centres undefined) yielded an RP-LC retention time of 632 s.
